Assay results published in ChEMBL document CHEMBL3508140 (2016).

Legend:
[1] = Volume of distribution as steady state of epirubicin following intravenous epirubicin at 40-135 mg.m-2 dose in cancer patients; type: ADME, organism-based, Plasma; conditions: human, in vivo
[2] = Half-life of terminal elimination phase of epirubicin following intravenous epirubicin at 40-135 mg.m-2 dose in cancer patients; type: ADME, organism-based; conditions: human, plasma
[3] = Intermediate phase half-life of epirubicin following intravenous epirubicin at 75-90 mg.m-2 dose in cancer patients; type: ADME, organism-based, Plasma; conditions: human, in vivo
[4] = Recovery of epirubicin following intravenous epirubicin at 4 mg.Kg-1 dose in rat; type: ADME, organism-based, SD, Plasma; conditions: in vivo
[5] = Cumulative biliary excretion of epirubicin and its metabolites following epirubicin at 50 mg.m-2 dose in cancer patients; type: ADME, organism-based, Bile; conditions: human, in vivo; at 50 mg/m2
[6] = AUC of epirubicin following intravenous epirubicin solution at 1 mg.Kg-1 dose in rabbit; type: ADME, organism-based, Oryctolagus cuniculus; conditions: both, New Zealand White, blood
[7] = Mean residence time (MRT) of epirubicin following intrahepatic epirubicin solution at 1 mg.Kg-1 dose in rabbit; type: ADME, organism-based, Oryctolagus cuniculus; conditions: both, New Zealand White, blood, read-out: Mean residence time (converted)
[8] = Increase in serum phospholipid level following reference intravenous epirubicin at 1 mg.Kg-1 per week in rat; type: toxicity, organism-based, SD; conditions: in vivo
[9] = Mean residence time (MRT) of epirubicin following intrahepatic epirubicin emulsion at 1 mg.Kg-1 dose in rabbit; type: ADME, organism-based, Oryctolagus cuniculus; conditions: both, New Zealand White, blood, read-out: Mean residence time (converted)
[10] = Terminal half-life of epirubicin following intravenous epirubicin solution at 1 mg.Kg-1 dose in rabbit; type: ADME, organism-based, Oryctolagus cuniculus; conditions: both, New Zealand White, blood
[11] = Terminal elimination of metabolite of epirubicin following intravenous epirubicin at 40-60 mg.m-2 dose in cancer patients; type: ADME, organism-based, Plasma; conditions: human, in vivo
[12] = Volume of distribution as steady state of epirubicin following intravenous epirubicin at 60 mg.m-2 dose in cancer patients; type: ADME, organism-based, Plasma; conditions: human, in vivo
[13] = Volume of distribution as steady state of epirubicin following intravenous epirubicin at 75 mg.m-2 dose in cancer patients; type: ADME, organism-based, Plasma; conditions: human, in vivo
[14] = Volume of distribution of epirubicin following intravenous epirubicin solution at 1 mg.Kg-1 dose in rabbit; type: ADME, organism-based, Oryctolagus cuniculus; conditions: both, New Zealand White, blood
[15] = Plasma clearance of epirubicin following intravenous epirubicin solution at 1 mg.Kg-1 dose in rabbit; type: ADME, organism-based, Oryctolagus cuniculus, Blood; conditions: both, New Zealand White
[16] = Half-life of terminal elimination phase of epirubicin following intravenous epirubicin at 90-150 mg.m-2 dose in cancer patients; type: ADME, organism-based; conditions: human, plasma
[17] = Volume of distribution as steady state of epirubicin following intravenous epirubicin at 50 mg.m-2 dose in cancer patients; type: ADME, organism-based, Plasma; conditions: human, in vivo
[18] = Urinary excretion of epirubicin following epirubicin at 50 mg.m-2 dose in cancer patients; type: ADME, organism-based; conditions: human, urine, at 50 mg/m2, read-out: Compound recovery
[19] = Terminal half-life of epirubicinol following intravenous epirubicin at 3 mg.Kg-1 dose in rabbit; type: ADME, organism-based, Oryctolagus cuniculus, New Zealand White, Plasma; conditions: in vivo
[20] = Plasma clearance of epirubicin following intravenous epirubicin at 90-150 mg.m-2 dose in cancer patients; type: ADME, organism-based; conditions: human, in vivo
[21] = Terminal half-life of epirubicin following intravenous epirubicin at 3 mg.Kg-1 dose in rabbit; type: ADME, organism-based, Oryctolagus cuniculus; conditions: both, New Zealand White, plasma
[22] = Increase in serum triglycerides level following reference intravenous epirubicin at 1 mg.Kg-1 per week in rat; type: toxicity, organism-based, SD; conditions: in vivo
[23] = Plasma clearance of epirubicin following intravenous epirubicin at 40-135 mg.m-2 dose in cancer patients; type: ADME, organism-based; conditions: human, in vivo
[24] = Half-life of terminal elimination phase of epirubicin following intravenous epirubicin at 25-35 mg.m-2 dose in cancer patients; type: ADME, organism-based; conditions: human, plasma
[25] = Mean plasma clearance of epirubicin following intravenous epirubicin at 60 mg.m-2 dose in cancer patients; type: ADME, organism-based; conditions: human, read-out: CLp (converted)

In the case of `COc1cccc2c1C(=O)c1c(O)c3c(c(O)c1C2=O)C[C@@](O)(C(=O)CO)C[C@@H]3O[C@H]1C[C@H](N)[C@@H](O)[C@H](C)O1.Cl` [EPIRUBICIN HYDROCHLORIDE], the Vss [1] is reported as 836 L.m-2, the half-life [2] is reported as 20.6 h and the t1/2 [3] is reported as 2.6 h. For the same compound, the Compound recovery [4] was 56 10^-9M, the Radiolabel recovery [5] was 34.9% and the AUC [6] was 180 ng·h/mL. The MRT [7] was 1.38 h, the PHOSLPD_CHANGE [8] was “OUTCOME = Increased” and the MRT [9] was 1.11 h. For the same compound, the half-life [10] was 1.06 h, the t1/2 [11] was 31.5 h and the Vss [12] was 1272 L.m-2. The Vss [13] was 2964 L.m-2, the Vd [14] was 30.9 L/kg and the clearance [15] was 813 mL/min. The half-life [16] was 42 h, the Vss [17] was 583 L.m-2 and the dose excreted at 48 h [18] was 6.2%. The dose excreted at 96 h [18] was 9.6%, the t1/2 [19] was 33.94 h and the CLp [20] was 48 L.h-1.m-2. For the same compound, the half-life [21] was 21.3 h, the TRIG_CHANGE [22] was “OUTCOME = Increased” and the CLp [23] was 50.9 L.h-1.m-2. For the same compound, the half-life [24] was 29.3 h and the clearance [25] was 1250 mL/min.
